Experimental data published in paper PMC9555310, “Novel inhibitors and activity-based probes targeting serine proteases” (Frontiers in Chemistry, 2022).

Legend:
thrombin = target: T1, thrombin (Homo sapiens, UniProt P00734); assay: Irreversible inhibition kinetics of thrombin (fluorogenic substrate progress curves); format: biochemical; conditions: PBS pH 7.4, 37°C, mean ± SD (n=2)
T1 construct: apparent molecular mass of 31 kDa, corresponding to the heavy (catalytic) chain of the protease; purchased R&D Systems
Method: (§1) A range of inhibitor concentrations were prepared from a 10 mM stock solution of the test compounds (NAP533, NAP559, NAP800, NAP830, NAP849, and NAP962) in N, N-dimethylformamide (DMF). Recombinant protease activities were assayed using the cognate fluorogenic substrates as follows: trypsin (Z-Gly-Gly-Arg-NHMec), thrombin (Boc-Val-Pro-Arg-NHMec), plasmin (Boc-Val-Leu-Lys-NHMec), human neutrophil elastase (MeO-Succinyl-Ala-Ala-Pro-Val-NHMec), and chymotrypsin (Succinyl-Ala-Ala-Pro-Phe-NHMec). Each substrate was used at a final concentration of 50 μM, in the appropriate buffer for each protease. All inhibition assays were performed in microtiter plates maintained at 37°C in a final volume of 100 μL. The reaction was initiated by the addition of each protease (approx. 0.01 μg/well) and the rate of substrate hydrolysis was recorded continuously at 37°C, over a 60 min period, by measuring the rate of increase in fluorescence (at λex 360 nm, λem 480 nm) using a FLUOstar Optima microplate reader (BMG Labtech).
(§2) The resultant inhibition progress curves obtained for each inhibitor were analyzed by the kinetic models developed by [Tian and Tsou (1982)] and [Walker and Elmore (1984)], for irreversible inhibitors, with curve fitting being achieved using GraFit (Erithacus Software), as described previously ([Ferguson et al., 2016]).
Protease inactivation by each of the compounds under study was evaluated using a fluorogenic enzyme assays. Protease-substrate combinations used as detailed in Section 2. Inhibitors were made up as 10 mM stock solutions in either DMF or DMSO, then diluted with PBS (pH 7.4) to give appropriate working concentrations. A final volume of 100 μL was used per well. […] Increase in fluorescence was recorded using a FLUOstar OPTIMA spectrofluorometer (BMG Labtech), excitation 380 nm and emission 460 nm, for 61 cycles (60 seconds/cycle), with results analysed using MARS Data Analysis Software (BMG Labtech). […]

trypsin = target: T2, trypsin (Sus scrofa, UniProt P00761); assay: Irreversible inhibition kinetics of trypsin (fluorogenic substrate progress curves); format: biochemical, porcine
T2 construct: purchased Sigma-Aldrich; host or cells: porcine pancreas
T2 sequence (P00761 9-231): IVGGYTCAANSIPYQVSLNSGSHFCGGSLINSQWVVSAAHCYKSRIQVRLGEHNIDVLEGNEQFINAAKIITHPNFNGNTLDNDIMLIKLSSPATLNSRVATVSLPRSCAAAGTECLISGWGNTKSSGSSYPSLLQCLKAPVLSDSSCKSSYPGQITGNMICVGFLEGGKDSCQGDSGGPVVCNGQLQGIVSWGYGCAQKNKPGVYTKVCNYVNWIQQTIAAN
Method: as §1, §2
FIGURE 4 Progress curves for (A), chymotrypsin-catalysed hydrolysis of Succinyl-Ala-Ala-Pro-Phe-NHMec, in the presence of varying concentrations of NAP849. (B), NE-catalysed hydrolysis of MeO-succinyl-Ala-Ala-Pro-Val-NHMec, in the presence of varying concentrations of NAP800. (C) Trypsin-catalysed of Z-Gly-Gly-Arg-NHMec, in the presence of NAP830. (D) Plasmin-catalysed hydrolysis of Boc-Val-Leu-Lys-NHMec, in the presence of varying concentrations of NAP962. Assays were carried out in PBS, pH 7.4, at 37°C, in the presence of a range of inhibitor concentrations (0.25–50 μM) and a fixed concentration (50 μM) of the appropriate substrate for each protease. […]
Protease inactivation by each of the compounds under study was evaluated using a fluorogenic enzyme assays. […]

SMILES | KI (inactivation) (thrombin; Boc-Val-Pro-Arg-NHMec 50µM) | k 3 (thrombin; first-order rate constant) | k 3 / K i (thrombin; second-order rate constant) | k 3 (trypsin; first-order rate constant, PBS pH 7.4, 37°C, mean ± SD (n=2)) | effectiveness as irreversible inhibitor relative to the analogous lysine diphenyl phosphonate QUBTL2 (trypsin; fold greater than QUBTL2) | k 3 / K i (trypsin; second-order rate constant of inactivation, PBS pH 7.4, 37°C, mean ± SD (n=2))
N=C(N)NCCCN(CC(=O)N1CCC[C@H]1C(=O)N(CC(N)=O)Cc1ccccc1)C(=O)ON1C(=O)CCC1=O [NAP559, Succinimidoyl-CO-NArg-D-Pro-NPhe-NH2] | 5.67 µM | 0.6 (± 0.068) min^-1 | 1.1 (± 0.3) x 10^5 M^-1 min^-1 |  |  | 
NCCCCN(CC(=O)NCC(=O)NCC(=O)NCCCOCCOCCOCCCNC(=O)CCCCC1SCC2NC(=O)NC21)C(=O)ON1C(=O)CCC1=O (stereo not drawn) [NAP830, Succinimidoyl-CO-NLys-Gly-Gly-PEG-Biotin] |  |  |  | 0.6 (+ 0.2) min^−1 | two-fold | 45700 M⁻¹ s⁻¹
